Test results from patent publication US20240368135A1 (VERTEX PHARMACEUTICALS INCORPORATED, priority 2021, published 2024).
Structures can show the parent of a compound that is named as a salt.

The molecules below were run against human NaV 1.8 (Homo sapiens, UniProt Q9Y5Y9) (assay: E-VIPR assay detecting and measuring NaV inhibition properties). Conditions: HEK cells expressing truncated human NaV 1.8; no human serum; read-out: IC50 in the E-VIPR Assay.
human NaV 1.8, sequence (Q9Y5Y9 126-399 limits assumed): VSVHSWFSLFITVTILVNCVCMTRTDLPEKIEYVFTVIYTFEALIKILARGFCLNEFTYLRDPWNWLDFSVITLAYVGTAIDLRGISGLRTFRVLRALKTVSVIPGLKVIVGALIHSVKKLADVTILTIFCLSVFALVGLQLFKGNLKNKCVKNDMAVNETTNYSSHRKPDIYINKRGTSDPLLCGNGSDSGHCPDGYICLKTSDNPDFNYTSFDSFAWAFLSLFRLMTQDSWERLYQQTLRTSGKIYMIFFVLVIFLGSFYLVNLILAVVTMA
human NaV 1.8, sequence (Q9Y5Y9 660-890 limits assumed): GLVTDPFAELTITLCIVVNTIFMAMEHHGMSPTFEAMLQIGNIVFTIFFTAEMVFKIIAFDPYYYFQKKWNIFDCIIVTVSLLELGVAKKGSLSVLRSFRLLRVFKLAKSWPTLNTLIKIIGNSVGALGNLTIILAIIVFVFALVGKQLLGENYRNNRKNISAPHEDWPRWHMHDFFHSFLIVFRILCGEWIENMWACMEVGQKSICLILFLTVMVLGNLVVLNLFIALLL
human NaV 1.8, sequence (Q9Y5Y9 1148-1722 limits assumed): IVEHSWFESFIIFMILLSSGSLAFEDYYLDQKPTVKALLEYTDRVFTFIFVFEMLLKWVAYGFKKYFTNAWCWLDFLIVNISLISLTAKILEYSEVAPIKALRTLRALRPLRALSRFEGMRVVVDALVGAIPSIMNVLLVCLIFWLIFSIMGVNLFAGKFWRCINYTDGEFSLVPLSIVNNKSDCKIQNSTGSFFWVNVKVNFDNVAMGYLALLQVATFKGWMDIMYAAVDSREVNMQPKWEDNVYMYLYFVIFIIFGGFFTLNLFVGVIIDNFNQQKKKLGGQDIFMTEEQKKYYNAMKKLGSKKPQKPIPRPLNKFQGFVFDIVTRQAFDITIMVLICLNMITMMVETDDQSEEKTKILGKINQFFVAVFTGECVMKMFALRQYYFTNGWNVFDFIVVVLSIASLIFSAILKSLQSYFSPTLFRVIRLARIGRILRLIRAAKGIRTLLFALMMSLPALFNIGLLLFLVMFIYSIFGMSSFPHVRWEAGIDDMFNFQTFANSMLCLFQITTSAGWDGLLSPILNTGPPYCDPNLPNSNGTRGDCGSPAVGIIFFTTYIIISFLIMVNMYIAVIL
Assay type: cell-based
Summary of the method: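 HEK cells expressing truncated, fully active human NaV1.8, with KIR2.1 BacMam co-transduction, were loaded with CC2-DMPE/DiSBAC6(3) voltage-sensing dyes for 20 min at room temperature. Compounds were tested in 11-point 3-fold dilutions (300 nM top final), optionally with 25% human serum, under electrical stimulation with FRET read-out.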
With `C[C@H]1[C@@H](c2ccc(F)c(F)c2OCCO)[C@H](C(=O)Nc2cccnc2)O[C@@]1(C)C(F)(F)F` [Compound 575, (2R,3S,4S,5R)-3-[3,4-difluoro-2-(2-hydroxyethoxy)phenyl]-4,5-dimethyl-N-(3-pyridyl)-5-(trifluoromethyl)tetrahydrofuran-2-carboxamide] the IC50 was < 10 nM.
With `C[C@H]1[C@@H](c2ccc(F)c(F)c2OCCO)[C@H](C(=O)Nc2ccnnc2)O[C@@]1(C)C(F)(F)F` [Compound 576, (2R,3S,4S,5R)-3-[3,4-difluoro-2-(2-hydroxyethoxy)phenyl]-4,5-dimethyl-N-pyridazin-4-yl-5-(trifluoromethyl)tetrahydrofuran-2-carboxamide] the IC50 was < 10 nM.
In the case of `COCCOc1c([C@H]2[C@H](C(=O)Nc3ccc4nncn4c3)O[C@@](C)(C(F)(F)F)[C@H]2C)ccc(F)c1F` [Compound 577, (2R,3S,4S,5R)-3-[3,4-difluoro-2-(2-methoxyethoxy)phenyl]-4,5-dimethyl-N-([1,2,4]triazolo[4,3-a]pyridin-6-yl)-5-(trifluoromethyl)tetrahydrofuran-2-carboxamide], the IC50 is reported as < 10 nM.
In the case of `C[C@H]1[C@@H](c2ccc(F)c(F)c2OCC2COC2)[C@H](C(=O)Nc2cccnc2)O[C@@]1(C)C(F)(F)F` [Compound 578, (2R,3S,4S,5R)-3-(3,4-difluoro-2-(oxetan-3-ylmethoxy)phenyl)-4,5-dimethyl-N-(pyridin-3-yl)-5-(trifluoromethyl)tetrahydrofuran-2-carboxamide], the IC50 is reported as 10 to 100 nM.
With `Cc1nn(C(F)F)cc1NC(=O)[C@@H]1O[C@@](C)(C(F)(F)F)[C@@H](C)[C@H]1c1ccc(F)c(F)c1OCC1COC1` [Compound 579, (2R,3S,4S,5R)-3-(3,4-difluoro-2-(oxetan-3-ylmethoxy)phenyl)-N-(1-(difluoromethyl)-3-methyl-1H-pyrazol-4-yl)-4,5-dimethyl-5-(trifluoromethyl)tetrahydrofuran-2-carboxamide] the IC50 was < 10 nM.
In the case of `C[C@H]1[C@@H](c2ccc(F)c(F)c2OCC2COC2)[C@H](C(=O)Nc2ccc(C(N)=O)nc2)O[C@@]1(C)C(F)(F)F` [Compound 580, 5-((2R,3S,4S,5R)-3-(3,4-difluoro-2-(oxetan-3-ylmethoxy)phenyl)-4,5-dimethyl-5-(trifluoromethyl)tetrahydrofuran-2-carboxamido)picolinamide], the IC50 is reported as < 10 nM.
`C[C@H]1[C@@H](c2ccc(F)c(F)c2OCC2COC2)[C@H](C(=O)Nc2ccc(C(C)(C)O)nc2)O[C@@]1(C)C(F)(F)F` [Compound 581, (2R,3S,4S,5R)-3-(3,4-difluoro-2-(oxetan-3-ylmethoxy)phenyl)-N-(6-(2-hydroxypropan-2-yl)pyridin-3-yl)-4,5-dimethyl-5-(trifluoromethyl)tetrahydrofuran-2-carboxamide (TFA salt)] gave an IC50 of 100 to 1000 nM.
For `COCCOc1c([C@H]2[C@H](C(=O)Nc3cnn(C(C)(C)CO)c3)O[C@@](C)(C(F)(F)F)[C@H]2C)ccc(F)c1F` [Compound 582, (2R,3S,4S,5R)-3-(3,4-difluoro-2-(2-methoxyethoxy)phenyl)-N-(1-(1-hydroxy-2-methylpropan-2-yl)-1H-pyrazol-4-yl)-4,5-dimethyl-5-(trifluoromethyl)tetrahydrofuran-2-carboxamide], the IC50 was 100 to 1000 nM.
`COCCOc1c([C@H]2[C@H](C(=O)Nc3cnn(CC(C)(C)O)c3)O[C@@](C)(C(F)(F)F)[C@H]2C)ccc(F)c1F` [Compound 583, (2R,3S,4S,5R)-3-(3,4-difluoro-2-(2-methoxyethoxy)phenyl)-N-(1-(2-hydroxy-2-methylpropyl)-1H-pyrazol-4-yl)-4,5-dimethyl-5-(trifluoromethyl)tetrahydrofuran-2-carboxamide] showed an IC50 of 100 to 1000 nM.
In the case of `COCCOc1c([C@H]2[C@H](C(=O)Nc3ccc(=O)n(C)c3)O[C@@](C)(C(F)(F)F)[C@H]2C)ccc(F)c1F` [Compound 584, (2R,3S,4S,5R)-3-(3,4-difluoro-2-(2-methoxyethoxy)phenyl)-4,5-dimethyl-N-(1-methyl-6-oxo-1,6-dihydropyridin-3-yl)-5-(trifluoromethyl)tetrahydrofuran-2-carboxamide], the IC50 is reported as < 10 nM.
For `COCCOc1c([C@H]2[C@H](C(=O)Nc3ccnc(N4CCN(C)CC4=O)c3)O[C@@](C)(C(F)(F)F)[C@H]2C)ccc(F)c1F` [Compound 585, (2R,3S,4S,5R)-3-(3,4-difluoro-2-(2-methoxyethoxy)phenyl)-4,5-dimethyl-N-(2-(4-methyl-2-oxopiperazin-1-yl)pyridin-4-yl)-5-(trifluoromethyl)tetrahydrofuran-2-carboxamide], the IC50 was 10 to 100 nM.
`Cc1nocc1NC(=O)[C@@H]1O[C@@](C)(C(F)(F)F)[C@@H](C)[C@H]1c1ccc(F)c(F)c1OCCN1CCOCC1` [Compound 586, (2R,3S,4S,5R)-3-(3,4-difluoro-2-(2-morpholinoethoxy)phenyl)-4,5-dimethyl-N-(3-methylisoxazol-4-yl)-5-(trifluoromethyl)tetrahydrofuran-2-carboxamide] showed an IC50 of 10 to 100 nM.
For `C[C@H]1[C@@H](c2ccc(F)c(F)c2OCCN2CCOCC2)[C@H](C(=O)Nc2cccnc2)O[C@@]1(C)C(F)(F)F` [Compound 587, (2R,3S,4S,5R)-3-(3,4-difluoro-2-(2-morpholinoethoxy)phenyl)-4,5-dimethyl-N-(pyridin-3-yl)-5-(trifluoromethyl)tetrahydrofuran-2-carboxamide], the IC50 was 10 to 100 nM.
`C[C@H]1[C@@H](c2ccc(F)c(F)c2OCCN2CCOCC2)[C@H](C(=O)Nc2ccn(C)c(=O)c2)O[C@@]1(C)C(F)(F)F` [Compound 588, (2R,3S,4S,5R)-3-(3,4-difluoro-2-(2-morpholinoethoxy)phenyl)-4,5-dimethyl-N-(1-methyl-2-oxo-1,2-dihydropyridin-4-yl)-5-(trifluoromethyl)tetrahydrofuran-2-carboxamide] gave an IC50 of 10 to 100 nM.
`Cc1nn(C(F)F)cc1NC(=O)[C@@H]1O[C@@](C)(C(F)(F)F)[C@@H](C)[C@H]1c1ccc(F)c(F)c1OCCN1CCOCC1` [Compound 591, (2R,3S,4S,5R)-3-(3,4-difluoro-2-(2-morpholinoethoxy)phenyl)-N-(1-(difluoromethyl)-3-methyl-1H-pyrazol-4-yl)-4,5-dimethyl-5-(trifluoromethyl)tetrahydrofuran-2-carboxamide] was tested, and the IC50 was 10 to 100 nM.
With `C[C@H]1[C@@H](c2ccc(F)c(F)c2OCCN2CCOCC2)[C@H](C(=O)Nc2cc(C(N)=O)nn2C)O[C@@]1(C)C(F)(F)F` [Compound 592, 5-((2R,3S,4S,5R)-3-(3,4-difluoro-2-(2-morpholinoethoxy)phenyl)-4,5-dimethyl-5-(trifluoromethyl)tetrahydrofuran-2-carboxamido)-1-methyl-1H-pyrazole-3-carboxamide] the IC50 was 10 to 100 nM.
For `Cc1nn(C(N)=O)cc1NC(=O)[C@@H]1O[C@@](C)(C(F)(F)F)[C@@H](C)[C@H]1c1ccc(F)c(F)c1OCCN1CCOCC1` [Compound 593, 4-((2R,3S,4S,5R)-3-(3,4-difluoro-2-(2-morpholinoethoxy)phenyl)-4,5-dimethyl-5-(trifluoromethyl)tetrahydrofuran-2-carboxamido)-3-methyl-1H-pyrazole-1-carboxamide], the IC50 was 10 to 100 nM.
With `Cc1nn(C2COC2)cc1NC(=O)[C@@H]1O[C@@](C)(C(F)(F)F)[C@@H](C)[C@H]1c1ccc(F)c(F)c1OCCN1CCOCC1` [Compound 594, (2R,3S,4S,5R)-3-(3,4-difluoro-2-(2-morpholinoethoxy)phenyl)-4,5-dimethyl-N-(3-methyl-1-(oxetan-3-yl)-1H-pyrazol-4-yl)-5-(trifluoromethyl)tetrahydrofuran-2-carboxamide] the IC50 was 100 to 1000 nM.
Molecule `COC[C@@H](O)Cc1cc(NC(=O)[C@@H]2O[C@@](C)(C(F)(F)F)[C@@H](C)[C@H]2c2ccc(F)c(F)c2OCCN2CCOCC2)ccn1` [Compound 596, (2R,3S,4S,5R)-3-(3,4-difluoro-2-(2-morpholinoethoxy)phenyl)-N-(2-((S)-2-hydroxy-3-methoxypropyl)pyridin-4-yl)-4,5-dimethyl-5-(trifluoromethyl)tetrahydrofuran-2-carboxamide] has an IC50 of 10 to 100 nM.
Molecule `C[C@H]1[C@@H](c2ccc(F)c(F)c2OCCN2C[C@H]3COC[C@H]3C2)[C@H](C(=O)Nc2cc(C(N)=O)nn2C)O[C@@]1(C)C(F)(F)F` [Compound 597, 5-[[(2R,3S,4S,5R)-3-[2-[2-[(3aS,6aR)-1,3,3a,4,6,6a-hexahydrofuro[3,4-c]pyrrol-5-yl]ethoxy]-3,4-difluoro-phenyl]-4,5-dimethyl-5-(trifluoromethyl)tetrahydrofuran-2-carbonyl]amino]-1-methyl-pyrazole-3-carboxamide] has an IC50 of 10 to 100 nM.
`Cc1nn(C(F)F)cc1NC(=O)[C@@H]1O[C@@](C)(C(F)(F)F)[C@@H](C)[C@H]1c1ccc(F)c(F)c1OCCN1CC2(COC2)C1` [Compound 598, (2R,3S,4S,5R)-3-(2-(2-(2-oxa-6-azaspiro[3.3]heptan-6-yl)ethoxy)-3,4-difluorophenyl)-N-(1-(difluoromethyl)-3-methyl-1H-pyrazol-4-yl)-4,5-dimethyl-5-(trifluoromethyl)tetrahydrofuran-2-carboxamide] was tested, and the IC50 was 10 to 100 nM.
`Cc1nn(C(F)F)cc1NC(=O)[C@@H]1O[C@@](C)(C(F)(F)F)[C@@H](C)[C@H]1c1ccc(F)c(F)c1OCc1cn[nH]c1` [Compound 599, (2R,3S,4S,5R)-N-[1-(difluoromethyl)-3-methyl-pyrazol-4-yl]-3-[3,4-difluoro-2-(1H-pyrazol-4-ylmethoxy)phenyl]-4,5-dimethyl-5-(trifluoromethyl)tetrahydrofuran-2-carboxamide] was tested, and the IC50 was < 10 nM.
`Cc1nn(C(F)F)cc1NC(=O)[C@@H]1O[C@@](C)(C(F)(F)F)[C@@H](C)[C@H]1c1ccc(F)c(F)c1OC1CC(O)C1` (stereo partly drawn) [Compound 600, (2R,3S,4S,5R)-3-[3,4-difluoro-2-(3-hydroxycyclobutoxy)phenyl]-N-[1-(difluoromethyl)-3-methyl-pyrazol-4-yl]-4,5-dimethyl-5-(trifluoromethyl)tetrahydrofuran-2-carboxamide] was tested, and the IC50 was 10 to 100 nM.
